Test results taken from EP4817428A1, “SWEETNESS ENHANCER CONTAINING ERGOTHIONEINE AS ACTIVE INGREDIENT, AND FOOD OR BEVERAGE PRODUCT CONTAINING SAME” (Kikkoman Corporation, priority 2023, dated 2025).
Read-outs that look alike come from different tables or passages of the source.

What was measured:
[1] = Test 1: sensory evaluation by expert panel, selection of sucrose sample of equivalent sweetness; type: in vivo; settings: 2% sucrose sample containing 60 ppm ERG; all the five panelists
Description: Sucrose was added to pure water to prepare sucrose samples having six concentrations of 0%, 1%, 1.5%, 2%, 2.5%, and 3%; and as a seventh sample, a sample in which purified ergothioneine (purity: 99.5% or more, Tetrahedron) was added to 2% sucrose to a final concentration of 60 ppm was prepared.
The sweetness was evaluated by a sensory evaluation by an expert panel consisting of five trained sweetness-sensitive subjects. The panel of five experts was asked to select a sample having an equivalent sweetness from among the 1st to 6th sucrose samples (the concentration was not disclosed to the panel) regarding the sweetness of the 7th 2% sucrose sample containing 60 ppm ERG. After tasting each sample and before tasting the next sample, the mouth was completely rinsed with water at room temperature.

[2] = type: in vivo; settings: ERG added to water to a final concentration of 60 ppm; all the five panelists
Description: In the same manner as in Test 1, sucrose samples having six concentrations of 0%, 1%, 1.5%, 2%, 2.5%, and 3%, and as a seventh sample, a sample in which ergothioneine was added to water to a final concentration of 60 ppm were prepared. A drinking test by the same expert panel of five as in Test 1 was conducted, and after tasting each sample and before tasting the next sample, the mouth was completely rinsed with water at room temperature, and sweetness was sensorially evaluated. The panel of five experts was asked to select a sample having an equivalent sweetness from among the 1st to 6th sucrose samples (the concentration was not disclosed to the panel) regarding the sweetness of the 7th sample.

[3] = type: in vivo; settings: 4% sucrose
Description: (§1) Evaluation results of sweetness of test product compared with control • ∘: Sweetness was enhanced compared to the control. • ◇: Sweetness was similar to that of the control.
Samples (ERG5 to 900) were prepared by adding ergothioneine to a 4% sucrose solution to final concentrations of 5 ppm, 20 ppm, 60 ppm, 100 ppm, 400 ppm, and 900 ppm, and a drinking test by an expert panel of four, different from those in Tests 1 and 2, was conducted on the 4% sucrose samples to which ERG was added at each concentration (the concentration was not disclosed to the panel), and sweetness was sensorially evaluated.
Pairs combining the control 4% sucrose sample of Table 3 below and the 4% sucrose sample containing ergothioneine at each concentration were presented to the expert panel, and the panel evaluated which sample of the presented pair was perceived to be sweeter by a paired comparison test.

physchem = type: physicochemical; settings: 10% (100,000 ppm) dissolved in water at 40°C, left at 4°C; ERG precipitated 1 day later; read-out: concentration at which ERG could be contained in water
Description: ERG was dissolved in water at 40°C so that the ergothioneine concentration became 10% (100,000 ppm), and then left to stand at 4°C. When the solution was checked 1 day later, ERG was precipitated. From the above, the concentration at which ERG could be contained in water was less than 10%.

[4] = Test 5: sensory evaluation, selection of glucose sample of equivalent sweetness; type: in vivo; settings: 15% glucose sample containing 60 ppm ERG
Description: Glucose was added to pure water to prepare glucose samples having six concentrations of 0%, 13%, 14%, 15%, 16%, and 17%; and as a seventh sample, a sample in which ergothioneine was added to 15% glucose to a final concentration of 60 ppm was prepared.
(§2) Sweetness was sensorially evaluated by the same expert panel of five trained sweetness-sensitive subjects as in Test 1. The panel of five experts was asked to select a sample having an equivalent sweetness from among the 1st to 6th glucose samples (the concentration was not disclosed to the panel) regarding the sweetness of the 7th 15% glucose sample containing 60 ppm ERG.

[5] = type: in vivo; settings: 50% glucose solution
Description: as §1
Samples ERG0 to 900 were prepared by adding ergothioneine to 50% glucose samples to final concentrations of 0.5 ppm, 1 ppm, 3 ppm, 5 ppm, 10 ppm, 20 ppm, 60 ppm, 100 ppm, 400 ppm, and 900 ppm (Table 4).
(§3) Pairs combining a control 50% glucose sample to which ergothioneine was not added and a 50% glucose sample containing ergothioneine at each concentration were presented to the expert panel of four, and the panel evaluated which sample of the presented pair was perceived to be sweeter by a paired comparison test.

[6] = type: in vivo
Excerpt: as §1, §3
The same test as in the 50% glucose solution of (1) described above was conducted on a 10% glucose solution using the samples (ERG0 to 20) shown in Table 6.

[7] = Test 7: sensory evaluation, selection of fructose sample of equivalent sweetness; type: in vivo; settings: 5% fructose sample containing 60 ppm ERG
Description: Fructose was added to pure water to prepare fructose samples having six concentrations of 0%, 4.5%, 5%, 5.25%, 5.5%, and 6%; and as a seventh sample, a sample in which ergothioneine was added to 5% fructose to a final concentration of 60 ppm was prepared.
as §2, with “fructose” for “glucose”, “5% fructose” for “15% glucose”

[8] = Test 9 (3): paired comparison test of sweetness, 50% starch syrup sample; type: in vivo; settings: 50% starch syrup samples
Description: (§4) In the following Test 9, sensory evaluation was performed by a panel of three experts in the same paired comparison test as in Tests 3, 5, and 7.
Samples were prepared by adding ERG to a 50% starch syrup sample of a highly saccharified reduced starch syrup rich in monosaccharide alcohols and disaccharide alcohols (SE 600, Bussan Food Science Co., Ltd.) to the ERG concentrations shown in Table 14 (ERG0 to 10). Pairs combining a control 50% starch syrup sample and a 50% starch syrup sample containing ERG at each concentration were presented, and the panel evaluated which sample of the presented pair was perceived to be sweeter by a paired comparison test.

[9] = Test 9 (4): paired comparison test of sweetness, 50% oligosaccharide sample; type: in vivo; settings: 50% oligosaccharide samples
Description: as §4
Samples were prepared by adding ERG to a 50% oligosaccharide sample of an oligosaccharide (Fuji Oligo #450, Nihon Shokuhin Kako Co., Ltd.) to the ERG concentrations shown in Table 15 (ERG0 to 10). Pairs combining a control 50% oligosaccharide sample and a 50% oligosaccharide sample containing ERG at each concentration were presented, and the panel evaluated which sample of the presented pair was perceived to be sweeter by a paired comparison test.

[10] = Test 9 (6): paired comparison test of sweetness, 0.1% stevia sample; type: in vivo; settings: 0.1% stevia samples
Description: as §4
Pairs combining a control 0.1% stevia sample and a 0.1% stevia sample containing ERG at each concentration were presented, and the panel evaluated which sample of the presented pair was perceived to be sweeter by a paired comparison test.

[11] = Test 9 (7): paired comparison test of sweetness, 12.5% glycine sample; type: in vivo; settings: 12.5% glycine samples
Description: as §4
Pairs combining a control 12.5% glycine sample and a 12.5% glycine sample containing ERG at each concentration were presented, and the panel evaluated which sample of the presented pair was perceived to be sweeter by a paired comparison test.

[12] = type: in vivo; settings: milk
Description: as §1
Samples of milk (EGR0.5 to 20) were prepared by adding ergothioneine to commercially available milk to final concentrations of 0.5 ppm, 1 ppm, 3 ppm, 5 ppm, 10 ppm, and 20 ppm.
A drinking test by a panel of three experts was conducted on the milk to which ERG was added at each concentration (the concentration was not disclosed to the panel), using a milk to which no ergothioneine was added (ERG0) as a control, and the sweetness was sensorially evaluated by a paired comparison test.

C[N+](C)(C)[C@@H](Cc1c[nH]c(=S)[nH]1)C(=O)[O-] [ERG, Ergothioneine]
sucrose solution of equivalent sweetness [1]: 2.5% | sucrose solution of equivalent sweetness [2]: 0% | ERG concentration at which the sweetness-enhancing effect became constant [3]: 100 ppm | solubility at 24 h (physchem): < 100 mg/mL | glucose solution of equivalent sweetness ([4]; three of the five panelists): 16% | glucose solution of equivalent sweetness ([4]; two of the five panelists): 17% | ERG added at which all the panelists evaluated that the sweetness was enhanced [5]: ≥ 0.5 ppm | ERG having a sweetness-enhancing effect, based on the glucose content [5]: ≥ 0.0001 % by weight | ERG concentration at which the sweetness-enhancing effect became constant ([6]; 10% glucose): 60 ppm | ERG added at which all the panelists evaluated that the sweetness was enhanced ([6]; 10% glucose solution): ≥ 0.5 ppm | ERG having a sweetness-enhancing effect, based on the glucose content ([6]; 10% glucose solution): ≥ 0.0005 % by weight | fructose solution of equivalent sweetness ([7]; three of the five panelists): 5.5% | fructose solution of equivalent sweetness ([7]; two of the five panelists): 5.25% | ERG added at which all the panelists evaluated that the sweetness was enhanced [8]: ≥ 0.5 ppm | ERG added at which all the panelists evaluated that the sweetness was enhanced [9]: ≥ 0.5 ppm | ERG added at which all the panelists evaluated that the sweetness was enhanced [10]: ≥ 0.5 ppm | ERG having a sweetness-enhancing effect, based on the stevia content [10]: ≥ 0.05 % by weight | ERG added at which all the panelists evaluated that the sweetness was enhanced [11]: ≥ 0.5 ppm | ERG having a sweetness-enhancing effect, based on the glycine content [11]: ≥ 0.0004 % by weight | ERG content at which all the panelists evaluated that the sweetness was enhanced [12]: 5 ppm
